“Also recorded” adds a separate entry of the source.
Key:
ovariectomized rats = experiment: Uterotrophic assay in ovariectomized rats; assay type: in vivo, rat; settings: for uterotrophic effect (in words): compared to TAM; for Relative uterus wet weight: s.c. 10 mg/kg/d BW for three days
Excerpt: Compounds showing appreciable estrogenic activity in the YES assay and that were able to inhibit the growth of MCF-7 cancer cell lines yet with low estrogenic activity on Ishikawa endometrial adenocarcinoma cells might serve as potential ideal SERMS. Compounds 12 and 19 were therefore selected for the in vivo experiments to assess their estrogenic properties in an uterotrophic assay in an ovariectomized rat model. The in vivo uterotrophic rat assay is the gold standard assay to test for the estrogenic effect of compounds; the assay uses adult ovariectomized (OVX) female rats where there is no significant source of endogenous estrogens. Compounds that have estrogenic effects cause uterotrophic response due to the imbibition of water and growth of the uterine cells. Statistically significant uterine weight increases compared to controls provide a positive result. Adopting both in vivo and in vitro assays was inevitable due to the limitations of each assay. The cell lines are not properly able to recapitulate the in vivo environment of the uterus within the body. On the other hand, the rat uterotrophic assay merely considers the uterine weight gain as an endpoint of estrogenicity without taking into account all factors that play a role in exerting an estrogenic effect on the organ and body.
The most common short-term in vivo assay for estrogenicity/anti-estrogenicity is the uterotrophic assay, suitable for screening ERα agonists and antagonists. The primary endpoint is the uterine wet weight (UWW). An increase in UWW indicates an estrogenic activity of the test compound. Compounds 12 and 19 were screened using the in vivo uterotrophic assay.
The most common short-term in vivo assay for (anti)-estrogenicity is the uterine growth test, suitable for screening ERα agonists and antagonists. The primary endpoint is the uterine wet weight (UWW). An increase in UWW indicates an estrogenic activity of the test compound [43]. Sprague Dawley female rats (170–200 g) were obtained from the animal colony of the National Institute of Research (Cairo, Egypt). The rats were housed in a temperature-controlled room (23–24 °C) with a 12 h light:dark cycle and with free access to food and water. They were allowed to acclimatize to the animal house of the German University in Cairo for at least 1 week before initiating the experiments. All efforts were made to minimize animal discomfort and suffering. Animals were ovariectomized. After 14 days of endogenous hormonal decline, the animals were subcutaneously treated for three days with respective compounds. The animals were randomly allocated to treatment and vehicle groups (n = 6). […] The uterus wet weight was determined.

NSCLC cell lines = experiment: NCI five-dose assay, NSCLC subpanel; assay type: cell-based; settings: Homo sapiens
Experimental: (§1) All compounds were subjected to the NCI in vitro disease-oriented human cells screening panel assay. The human tumor cell lines of the cancer-screening panel are grown in RPMI 1640 medium containing 5% fetal bovine serum and 2 mM L-glutamine. For a typical screening experiment, cells are inoculated into 96-well microtiter plates in 100 μL at plating densities ranging from 5000 to 40,000 cells/well depending on the doubling time of individual cell lines. After cell inoculation, the microtiter plates are incubated at 37 °C, 5% CO2, 95% air, and 100% relative humidity for 24 h prior to the addition of experimental drugs. After 24 h, two plates of each cell line are fixed in situ with TCA to represent a measurement of the cell population for each cell line at the time of drug addition. Experimental drugs are solubilized in dimethyl sulfoxide at 400-fold the desired final maximum test concentration and stored frozen prior to use. At the time of drug addition, an aliquot of frozen concentrate is thawed and diluted to twice the desired final maximum test concentration with complete medium containing 50 μg/mL gentamicin. […] Bound stain is subsequently solubilized with a 10 mM trizma base, and the absorbance is read on an automated plate reader at a wavelength of 515 nm. […] Three response parameters (GI50, TGI, and LC50) were calculated for each cell line.

renal cell lines = experiment: NCI five-dose assay, renal subpanel; assay type: cell-based; settings: Homo sapiens
Experimental: as §1

MDA-MB-468 = experiment: NCI five-dose assay, TNBC cell line MDA-MB-468; assay type: cell-based, human; settings: MDA-MB-468, five-dose assay
Experimental: as §1

prostate cell lines = experiment: NCI five-dose assay, prostate subpanel; assay type: cell-based; settings: Homo sapiens
Experimental: as §1

Structure (SMILES)	uterotrophic effect (in words) (ovariectomized rats)	Relative uterus wet weight (ovariectomized rats) [g/kg BW]	GI50 (NSCLC cell lines) [nM]	GI50 (renal cell lines) [nM]	anti-proliferative activity compared to TAM (MDA-MB-468)	GI50 (prostate cell lines) [nM]
COc1ccc(C(C)=C(c2ccc(Cl)cc2)c2ccc(OCCN3CCCCC3)cc2)cc1 [Compound 12, E/Z-1-(2-{4-[1-(4-Chloro-phenyl)-2-(4-methoxy-phenyl)-propenyl]-phenoxy}-ethyl)-piperidine]	no uterotrophic effect; also recorded: less increase in UWW	1.23 ± 0.18				
COc1ccc(C(C)=C(c2ccc(Cl)cc2)c2ccc(OCCN3CCCCCC3)cc2)cc1F [Compound 19, E/Z-1-(2-{4-[1-(4-Chlorophenyl)-2-(3-fluoro-4-methoxyphenyl)-propenyl]-phenoxy}-ethyl)-azepane]	less increase in UWW	1.15 ± 0.18				
CCN(CC)CCOc1ccc(C(=C(C)c2ccc(F)c(OC)c2)c2ccc(Cl)cc2)cc1 [Compound 28, E/Z-(2-{4-[1-(4-Chlorophenyl)-2-(4-fluoro-3-methoxyphenyl)-propenyl]-phenoxy}-ethyl)-diethyl-amine]			2340	2400	equipotent to TAM	2310
